Source: patent publication EP1976513B1 (priority 2006, dated 2007)
Where “and” joins values, the source holds several entries; their conditions need not be identical. Equal entries are not always repeated. Where two headings read alike, the source gives them in different places.

Assays:
[1] = molecular target: human serotonin reuptake transporter (Homo sapiens, UniProt P31645); assay: cell-based; conditions: recombinant human serotonin transporter (SERT); read-out: Human IC50 (nM) hSERT
[2] = molecular target: T1, human dopamine reuptake transporter (Homo sapiens, UniProt Q01959); assay: cell-based; conditions: recombinant human dopamine transporter (DAT); read-out: Human IC50 (nM) hDAT
T1 construct: expressed in transfected cells; host or cells: CHO-K1 or HEK293
T1 sequence (Q01959 whole entry): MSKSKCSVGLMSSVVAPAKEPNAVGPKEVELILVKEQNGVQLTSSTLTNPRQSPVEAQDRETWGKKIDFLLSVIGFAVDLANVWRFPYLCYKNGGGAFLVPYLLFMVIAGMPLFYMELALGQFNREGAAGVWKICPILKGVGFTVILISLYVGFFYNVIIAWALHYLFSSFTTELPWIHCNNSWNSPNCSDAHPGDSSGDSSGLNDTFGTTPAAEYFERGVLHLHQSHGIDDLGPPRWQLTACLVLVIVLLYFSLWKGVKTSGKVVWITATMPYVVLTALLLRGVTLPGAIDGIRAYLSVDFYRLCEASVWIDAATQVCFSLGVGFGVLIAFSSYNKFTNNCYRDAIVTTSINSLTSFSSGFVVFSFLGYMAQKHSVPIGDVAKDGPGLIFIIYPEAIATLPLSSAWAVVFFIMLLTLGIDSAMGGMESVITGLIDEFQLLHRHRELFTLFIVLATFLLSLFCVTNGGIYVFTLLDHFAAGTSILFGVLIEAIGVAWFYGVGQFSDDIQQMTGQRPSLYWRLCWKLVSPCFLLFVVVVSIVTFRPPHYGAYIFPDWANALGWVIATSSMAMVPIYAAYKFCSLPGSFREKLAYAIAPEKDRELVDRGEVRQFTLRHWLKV

[3] = molecular target: human norepinephrine reuptake transporter (Homo sapiens, UniProt P23975); assay: cell-based; conditions: recombinant human norepinephrine transporter (NET); read-out: Human IC50 (nM) hNET
Sequence of human norepinephrine reuptake transporter (P23975 whole entry): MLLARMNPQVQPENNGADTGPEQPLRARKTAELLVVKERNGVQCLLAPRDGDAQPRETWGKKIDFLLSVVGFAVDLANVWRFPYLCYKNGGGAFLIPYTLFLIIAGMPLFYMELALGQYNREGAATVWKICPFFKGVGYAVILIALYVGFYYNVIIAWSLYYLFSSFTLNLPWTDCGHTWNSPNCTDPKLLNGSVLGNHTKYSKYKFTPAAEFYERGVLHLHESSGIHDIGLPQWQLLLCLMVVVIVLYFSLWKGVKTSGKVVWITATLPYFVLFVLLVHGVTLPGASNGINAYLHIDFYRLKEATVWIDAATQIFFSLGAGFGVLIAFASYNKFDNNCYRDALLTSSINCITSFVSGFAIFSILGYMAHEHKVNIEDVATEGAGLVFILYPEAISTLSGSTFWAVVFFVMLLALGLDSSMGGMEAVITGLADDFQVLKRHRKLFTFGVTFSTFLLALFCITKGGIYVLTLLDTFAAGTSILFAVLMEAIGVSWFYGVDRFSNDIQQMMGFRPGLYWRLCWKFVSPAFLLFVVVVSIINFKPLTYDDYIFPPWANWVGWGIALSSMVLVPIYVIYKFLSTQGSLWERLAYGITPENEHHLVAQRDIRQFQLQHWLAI

[4] = molecular target: T2, 5-HT Transporter (SERT) Sites in Mouse Brain (Mus musculus, UniProt Q60857); assay: Ex vivo [3H] citalopram binding after oral dosing; set-up: species or system C57BL/6 mice; conditions: for % Transporter Occupancy, SERT: 60 minutes after treatment, vs vehicle; for Mean Specific Binding (dpm) ± S.E.M., SERT: mice sacrificed 60 minutes after treatment, cortex
T2 construct: Whole brains were removed and cortex and striata dissected out; from tissue; host or cells: C57BL/6 mouse frontal cortex homogenate
T2 sequence (Q60857 whole entry): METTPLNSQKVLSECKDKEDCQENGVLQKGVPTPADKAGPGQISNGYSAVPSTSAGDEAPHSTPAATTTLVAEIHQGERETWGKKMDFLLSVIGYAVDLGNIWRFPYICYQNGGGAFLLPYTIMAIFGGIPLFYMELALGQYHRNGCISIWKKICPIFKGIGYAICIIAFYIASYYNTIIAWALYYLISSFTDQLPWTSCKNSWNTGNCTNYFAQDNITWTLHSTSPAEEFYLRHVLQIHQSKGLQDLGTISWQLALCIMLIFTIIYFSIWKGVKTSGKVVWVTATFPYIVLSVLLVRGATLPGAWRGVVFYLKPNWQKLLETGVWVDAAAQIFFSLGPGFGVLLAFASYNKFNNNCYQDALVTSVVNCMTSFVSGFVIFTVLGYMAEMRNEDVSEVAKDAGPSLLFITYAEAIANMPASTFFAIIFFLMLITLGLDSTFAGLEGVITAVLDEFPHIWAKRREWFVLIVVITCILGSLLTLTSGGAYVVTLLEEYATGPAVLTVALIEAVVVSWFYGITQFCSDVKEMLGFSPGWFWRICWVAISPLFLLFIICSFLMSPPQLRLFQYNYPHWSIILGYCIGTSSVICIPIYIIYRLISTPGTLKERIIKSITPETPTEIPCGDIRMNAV

[5] = molecular target: T3, DA Transporter (DAT) Sites in Mouse Brain (Mus musculus, UniProt Q61327); assay: Ex vivo [3H] WIN 35428 binding after oral dosing; set-up: species or system C57BL/6 mice; conditions: for % Transporter Occupancy, DAT: 60 minutes after treatment, vs vehicle; for Mean Specific Binding (dpm) ± S.E.M., DAT: mice sacrificed 60 minutes after treatment, striatum
T3 construct: Striatum was used to determine occupancy of DA transporter sites; from tissue; host or cells: C57BL/6 mouse striatum homogenate
T3 sequence (Q61327 whole entry): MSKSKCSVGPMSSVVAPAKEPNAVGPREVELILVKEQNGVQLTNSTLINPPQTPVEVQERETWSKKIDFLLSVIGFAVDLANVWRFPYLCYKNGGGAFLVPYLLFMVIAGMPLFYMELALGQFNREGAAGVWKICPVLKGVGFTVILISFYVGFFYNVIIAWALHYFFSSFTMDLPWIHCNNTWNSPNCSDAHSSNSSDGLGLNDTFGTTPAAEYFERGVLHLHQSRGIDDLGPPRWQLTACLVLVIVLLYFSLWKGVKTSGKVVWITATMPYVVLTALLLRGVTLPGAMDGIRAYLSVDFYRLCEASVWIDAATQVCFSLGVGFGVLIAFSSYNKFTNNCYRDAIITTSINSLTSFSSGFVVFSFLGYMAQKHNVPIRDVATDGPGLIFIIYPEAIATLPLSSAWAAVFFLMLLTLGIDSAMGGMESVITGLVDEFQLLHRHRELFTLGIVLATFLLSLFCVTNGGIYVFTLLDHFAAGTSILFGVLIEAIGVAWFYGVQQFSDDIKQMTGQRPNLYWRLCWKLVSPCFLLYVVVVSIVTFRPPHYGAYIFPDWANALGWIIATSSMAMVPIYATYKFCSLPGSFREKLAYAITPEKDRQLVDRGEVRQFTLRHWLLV

Rats [6] = assay: Rat forced swim test; type: in vivo; conditions: PO, 24 hours and 30-60 minutes before the 5 minute test
mice [7] = assay: Mouse tail suspension test; type: in vivo; conditions: PO, 30-60 minutes before the test, 5 minutes recording
mice [8] = assay: Mouse locomotor activity; type: in vivo; conditions: PO
Method: (§1) In order to ensure effects of the compounds on immobility time were not related to a general stimulant effect on baseline motor activity, locomotor activity was assessed using photocell monitored cages (Med-Associates Inc.). Each test chamber was equipped with infrared photocell beams to measure movement of the animals. Horizontal and vertical activity were measured
(§2) Rats or mice were pretreated with vehicle or test compounds and placed back in home cage, following which they will be individually placed in locomotor cages and activity was monitored in 5 minute intervals for up to 60 min.
(§3) Data were analyzed by one way analysis of variance (ANOVA) followed by post-hoc comparisons where appropriate. An effect was considered significant if p < 0.05. Data are represented as the mean and standard error to the mean (s.e.m).

Rats [9] = assay: Rat locomotor activity; type: in vivo; conditions: PO
Method: as §1, §2, §3

[10] = molecular target: Norepinephrine Transporter (NET) Sites in Mouse Brain (Mus musculus, UniProt O55192); conditions: PO; for % Transporter Occupancy, NET: 60 minutes after treatment, vs vehicle; for Mean Specific Binding (dpm) ± S.E.M., NET: mice sacrificed 60 minutes after treatment, cortex
Sequence of Norepinephrine Transporter (NET) Sites in Mouse Brain (O55192 whole entry): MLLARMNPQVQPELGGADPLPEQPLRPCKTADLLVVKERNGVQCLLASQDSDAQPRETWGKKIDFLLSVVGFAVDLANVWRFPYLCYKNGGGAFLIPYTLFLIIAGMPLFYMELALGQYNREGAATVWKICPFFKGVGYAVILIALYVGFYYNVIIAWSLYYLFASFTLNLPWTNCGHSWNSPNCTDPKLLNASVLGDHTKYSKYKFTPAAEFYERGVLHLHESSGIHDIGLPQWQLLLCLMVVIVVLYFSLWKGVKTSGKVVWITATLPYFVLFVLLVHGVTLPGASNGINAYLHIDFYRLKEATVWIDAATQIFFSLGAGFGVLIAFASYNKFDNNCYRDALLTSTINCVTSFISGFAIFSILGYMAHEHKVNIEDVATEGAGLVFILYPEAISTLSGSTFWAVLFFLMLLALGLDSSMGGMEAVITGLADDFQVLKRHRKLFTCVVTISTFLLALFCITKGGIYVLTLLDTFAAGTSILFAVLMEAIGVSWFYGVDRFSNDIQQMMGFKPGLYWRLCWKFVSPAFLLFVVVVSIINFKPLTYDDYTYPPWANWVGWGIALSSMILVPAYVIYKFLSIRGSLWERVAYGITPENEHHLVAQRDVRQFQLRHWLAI

dopamine transporter = molecular target: T4, dopamine transporter (Rattus norvegicus, UniProt P23977); assay: biochemical; conditions: rat synaptosomes, dopamine transporter (DAT)
T4 construct: synaptosomes isolated in a 0.32 M sucrose buffer from a male Wistar rat striatum; from tissue; host or cells: male Wistar rat striatum synaptosomes
T4 sequence (P23977 whole entry): as the sequence (Q61327 whole entry) above, with P21S, V57A, S194A, R600H, V619L counted along it

serotonin transporter = molecular target: T5, serotonin transporter (Rattus norvegicus, UniProt P31652); assay: biochemical; conditions: rat synaptosomes, serotonin transporter (SERT)
T5 construct: synaptosomes isolated in a 0.32M sucrose buffer from a male Wistar rat cortex; from tissue; host or cells: male Wistar rat cortex synaptosomes
T5 sequence (P31652 whole entry): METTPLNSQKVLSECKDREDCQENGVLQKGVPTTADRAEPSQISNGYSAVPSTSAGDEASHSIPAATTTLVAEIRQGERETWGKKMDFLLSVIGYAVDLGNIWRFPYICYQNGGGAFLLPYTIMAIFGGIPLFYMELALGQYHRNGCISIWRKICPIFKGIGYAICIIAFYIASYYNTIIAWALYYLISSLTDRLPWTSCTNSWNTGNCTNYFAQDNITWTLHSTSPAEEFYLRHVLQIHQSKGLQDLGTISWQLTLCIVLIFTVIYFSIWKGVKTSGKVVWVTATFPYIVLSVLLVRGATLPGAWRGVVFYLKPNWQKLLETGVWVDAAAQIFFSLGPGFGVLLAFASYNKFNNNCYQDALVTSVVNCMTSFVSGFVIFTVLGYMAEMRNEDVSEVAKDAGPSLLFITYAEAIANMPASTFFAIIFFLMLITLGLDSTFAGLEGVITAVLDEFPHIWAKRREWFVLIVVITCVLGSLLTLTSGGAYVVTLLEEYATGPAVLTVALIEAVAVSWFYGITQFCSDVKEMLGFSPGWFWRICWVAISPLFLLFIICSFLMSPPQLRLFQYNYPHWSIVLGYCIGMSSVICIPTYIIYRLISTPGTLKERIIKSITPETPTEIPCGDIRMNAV

Sequence of human serotonin reuptake transporter (P31645 whole entry): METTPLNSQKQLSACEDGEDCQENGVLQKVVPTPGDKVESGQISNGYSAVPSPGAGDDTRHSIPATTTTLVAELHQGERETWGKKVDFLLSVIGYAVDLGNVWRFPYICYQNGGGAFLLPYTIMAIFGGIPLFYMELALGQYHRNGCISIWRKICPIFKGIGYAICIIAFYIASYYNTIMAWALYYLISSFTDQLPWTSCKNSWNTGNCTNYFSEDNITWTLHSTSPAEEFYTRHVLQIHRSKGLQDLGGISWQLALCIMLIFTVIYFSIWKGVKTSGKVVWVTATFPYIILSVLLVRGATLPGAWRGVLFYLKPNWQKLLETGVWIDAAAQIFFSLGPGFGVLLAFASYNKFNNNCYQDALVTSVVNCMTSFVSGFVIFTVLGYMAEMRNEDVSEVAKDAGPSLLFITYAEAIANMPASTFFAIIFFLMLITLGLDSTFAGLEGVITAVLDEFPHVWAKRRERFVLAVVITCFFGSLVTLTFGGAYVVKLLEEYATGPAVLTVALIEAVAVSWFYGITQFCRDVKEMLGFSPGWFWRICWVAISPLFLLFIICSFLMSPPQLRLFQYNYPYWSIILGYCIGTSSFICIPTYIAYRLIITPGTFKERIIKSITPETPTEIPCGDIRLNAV

## CC1(O)CCC(CN)(c2ccc3ccccc3c2)CC1 (centres unmarked) [Compound 209, 4-(aminomethyl)-1-methyl-4-(naphthalen-2-yl)cyclohexanol]
[1]
  IC50: 1160 nM
[2]
  IC50: 4760 nM
[3]
  IC50: > 10000 nM

## CN(C)C[C@]1(c2ccc3ccccc3c2)CC[C@](C)(O)CC1 [Compound 225, 4-((dimethylamino)methyl)-1-methyl-4-(naphthalen-2-yl)cyclohexanol]
[1]
  IC50: 7 nM
[4]; 1 mg/kg
  % Transporter Occupancy, SERT: 17%
  Mean Specific Binding (dpm) ± S.E.M., SERT: 3842 ± 152 dpm
[4]; 3 mg/kg
  % Transporter Occupancy, SERT: 54%
  Mean Specific Binding (dpm) ± S.E.M., SERT: 2118 ± 139 dpm
[4]; 10 mg/kg
  % Transporter Occupancy, SERT: 81%
  Mean Specific Binding (dpm) ± S.E.M., SERT: 904 ± 35 dpm
[4]; 30 mg/kg
  % Transporter Occupancy, SERT: 91%
  Mean Specific Binding (dpm) ± S.E.M., SERT: 414 ± 37 dpm
[5]; 1 mg/kg
  % Transporter Occupancy, DAT: 3%
  Mean Specific Binding (dpm) ± S.E.M., DAT: 19787 ± 3338 dpm
[5]; 3 mg/kg
  % Transporter Occupancy, DAT: -6%
  Mean Specific Binding (dpm) ± S.E.M., DAT: 21666 ± 3698 dpm
[5]; 10 mg/kg
  % Transporter Occupancy, DAT: 8%
  Mean Specific Binding (dpm) ± S.E.M., DAT: 18872 ± 2775 dpm
[5]; 30 mg/kg
  % Transporter Occupancy, DAT: 29%
  Mean Specific Binding (dpm) ± S.E.M., DAT: 14618 ± 1209 dpm
Rats [6]; 3 mg/kg
  Rat Forced Swim (Means ± S.E.M.) Climbing: 8.4 ± 1.7
  Rat Forced Swim (Means ± S.E.M.) Immobility: 50.8 ± 1.8
Rats [6]; 10 mg/kg
  Rat Forced Swim (Means ± S.E.M.) Climbing: 11.1 ± 2.7
  Rat Forced Swim (Means ± S.E.M.) Immobility: 47.6 ± 3.0
  Rat Forced Swim (Means ± S.E.M.) Swimming: 1.2 ± 0.6
Rats [6]; 30 mg/kg
  Rat Forced Swim (Means ± S.E.M.) Climbing: 25.0 ± 4.6
  Rat Forced Swim (Means ± S.E.M.) Immobility: 33.4 ± 4.8
  Rat Forced Swim (Means ± S.E.M.) Swimming: 1.1 ± 0.5
Mice [7]; 0.3 mg/kg
  Mouse Tail Suspension Mean Immobility Time ± S.E.M.: 188.1 ± 8.0
Mice [7]; 1 mg/kg
  Mouse Tail Suspension Mean Immobility Time ± S.E.M.: 186.5 ± 5.2
Mice [7]; 3 mg/kg
  Mouse Tail Suspension Mean Immobility Time ± S.E.M.: 158.5 ± 4.9 and 155.2 ± 6.0
Mice [7]; 10 mg/kg
  Mouse Tail Suspension Mean Immobility Time ± S.E.M.: 137.8 ± 5.2
Mice [7]; 30 mg/kg
  Mouse Tail Suspension Mean Immobility Time ± S.E.M.: 136.3 ± 2.5
Mice [8]; 0.3 mg/kg
  Mouse Locomotor Activity Total Distance Traveled ± S.E.M.: 519.5 ± 56.4
Mice [8]; 1 mg/kg
  Mouse Locomotor Activity Total Distance Traveled ± S.E.M.: 423.4 ± 62.3
Mice [8]; 10 mg/kg
  Mouse Locomotor Activity Total Distance Traveled ± S.E.M.: 234.2 ± 49.4
Mice [8]; 30 mg/kg
  Mouse Locomotor Activity Total Distance Traveled ± S.E.M.: 177.4 ± 47.8
Rats [9]; 3 mg/kg
  Rat Locomotor Activity Total Distance Traveled ± S.E.M.: 1783.4 ± 182.7
Rats [9]; 10 mg/kg
  Rat Locomotor Activity Total Distance Traveled ± S.E.M.: 1628.5 ± 159.2
Rats [9]; 30 mg/kg
  Rat Locomotor Activity Total Distance Traveled ± S.E.M.: 2182.8 ± 151.2
[10]; 1 mg/kg
  % Transporter Occupancy, NET: 25%
  Mean Specific Binding (dpm) ± S.E.M., NET: 1170 ± 68 dpm
[10]; 3 mg/kg
  % Transporter Occupancy, NET: 48%
  Mean Specific Binding (dpm) ± S.E.M., NET: 813 ± 64 dpm
[10]; 10 mg/kg
  % Transporter Occupancy, NET: 75%
  Mean Specific Binding (dpm) ± S.E.M., NET: 393 ± 21 dpm
[10]; 30 mg/kg
  % Transporter Occupancy, NET: 85%
  Mean Specific Binding (dpm) ± S.E.M., NET: 230 ± 33 dpm

## CN(C)CC1(c2ccc(Cl)c(Cl)c2)CCC(F)CC1 (centres unmarked) [Compound 254, 1-(1-(3,4-dichlorophenyl)-4-fluorocyclohexyl)-N,N-dimethylmethanamine]
[1]
  IC50: 294 nM
Dopamine transporter; Rat IC50 (nM) rDAT
  IC50: 100 nM
[2]
  IC50: < 1 nM

## CN(C)CC1(c2ccc(Cl)c(Cl)c2)CCC(C)(O)CC1 (centres unmarked) [Compound 277, 4-(3,4-dichlorophenyl)-4-((dimethylamino)methyl)-1-methylcyclohexanol]
Serotonin transporter; Rat IC50 (nM) rSERT
  IC50: 42 nM
[1]
  IC50: 34 nM
Dopamine transporter; Rat IC50 (nM) rDAT
  IC50: 43 nM
[4]; 1 mg/kg
  % Transporter Occupancy, SERT: -6%
  Mean Specific Binding (dpm) ± S.E.M., SERT: 1508 ± 86 dpm
[4]; 3 mg/kg
  % Transporter Occupancy, SERT: -5%
  Mean Specific Binding (dpm) ± S.E.M., SERT: 1491 ± 75 dpm
[4]; 10 mg/kg
  % Transporter Occupancy, SERT: 0%
  Mean Specific Binding (dpm) ± S.E.M., SERT: 1416 ± 43 dpm
[4]; 30 mg/kg
  % Transporter Occupancy, SERT: 3%
  Mean Specific Binding (dpm) ± S.E.M., SERT: 1384 ± 101 dpm
[5]; 1 mg/kg
  % Transporter Occupancy, DAT: 17%
  Mean Specific Binding (dpm) ± S.E.M., DAT: 35827 ± 2302 dpm
[5]; 3 mg/kg
  % Transporter Occupancy, DAT: 21%
  Mean Specific Binding (dpm) ± S.E.M., DAT: 34136 ± 4104 dpm
[5]; 10 mg/kg
  % Transporter Occupancy, DAT: 23%
  Mean Specific Binding (dpm) ± S.E.M., DAT: 33230 ± 2807 dpm
[5]; 30 mg/kg
  % Transporter Occupancy, DAT: 26%
  Mean Specific Binding (dpm) ± S.E.M., DAT: 31743 ± 4406 dpm
Mice [8]; 3 mg/kg
  Mouse Locomotor Activity Total Distance Traveled ± S.E.M.: 418.8 ± 80.6
Mice [8]; 10 mg/kg
  Mouse Locomotor Activity Total Distance Traveled ± S.E.M.: 411.8 ± 87.8
Mice [8]; 30 mg/kg
  Mouse Locomotor Activity Total Distance Traveled ± S.E.M.: 327.7 ± 67.1
Rats [9]; 3 mg/kg
  Rat Locomotor Activity Total Distance Traveled ± S.E.M.: 1406.2 ± 84.9
Rats [9]; 10 mg/kg
  Rat Locomotor Activity Total Distance Traveled ± S.E.M.: 1861.4 ± 187.8
Rats [9]; 30 mg/kg
  Rat Locomotor Activity Total Distance Traveled ± S.E.M.: 2612.4 ± 210.8
[10]; 1 mg/kg
  % Transporter Occupancy, NET: 6%
  Mean Specific Binding (dpm) ± S.E.M., NET: 950 ± 46 dpm
[10]; 3 mg/kg
  % Transporter Occupancy, NET: 18%
  Mean Specific Binding (dpm) ± S.E.M., NET: 824 ± 30 dpm
[10]; 10 mg/kg
  % Transporter Occupancy, NET: 47%
  Mean Specific Binding (dpm) ± S.E.M., NET: 533 ± 25 dpm
[10]; 30 mg/kg
  % Transporter Occupancy, NET: 71%
  Mean Specific Binding (dpm) ± S.E.M., NET: 294 ± 42 dpm

## NCC1(c2cccc3ccccc23)CCCCC1 [Compound 12, (1-(naphthalen-1-yl)cyclohexyl)methanamine]
Serotonin transporter; read-out: Rat IC50 (nM) rSERT
  IC50: 1100 nM
Dopamine transporter; read-out: Rat IC50 (nM) rDAT
  IC50: 1900 nM
